Data reported in the supplement of paper PMC10307832.

Experiments:
Assay in all cases: relative viability (nuclei count vs DMSO), 5 days (fraction); higher = more cells survive
Adavosertib + Pictilisib = compound: C=CCn1c(=O)c2cnc(Nc3ccc(N4CCN(C)CC4)cc3)nc2n1-c1cccc(C(C)(C)O)n1 [Adavosertib] + CS(=O)(=O)N1CCN(Cc2cc3nc(-c4cccc5[nH]ncc45)nc(N4CCOCC4)c3s2)CC1 [Pictilisib] (partner 1 µM)
Outline: (§1)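 Relative viability was taken as the ratio of nuclei in treated wells to nuclei in vehicle wells. Lung cancer cell lines in 1536-well plates received compounds by pin tool one day after seeding, either one drug alone or a fixed anchor-drug dose plus five library-drug doses (not always all listed) in √10 steps. Nuclei were counted on 4× images after 5 days of treatment, and values are medians of duplicate plates.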

Nelarabine + Pictilisib = compound: COc1nc(N)nc2c1ncn2[C@@H]1O[C@H](CO)[C@@H](O)[C@@H]1O [Nelarabine] + CS(=O)(=O)N1CCN(Cc2cc3nc(-c4cccc5[nH]ncc45)nc(N4CCOCC4)c3s2)CC1 [Pictilisib] (partner 1 µM)
Outline: as §1

Nelarabine + Vorinostat = compound: COc1nc(N)nc2c1ncn2[C@@H]1O[C@H](CO)[C@@H](O)[C@@H]1O [Nelarabine] + O=C(CCCCCCC(=O)Nc1ccccc1)NO [Vorinostat] (partner 1 µM)
Outline: as §1

Nelarabine + Olaparib = compound: COc1nc(N)nc2c1ncn2[C@@H]1O[C@H](CO)[C@@H](O)[C@@H]1O [Nelarabine] + O=C(c1cc(Cc2n[nH]c(=O)c3ccccc23)ccc1F)N1CCN(C(=O)C2CC2)CC1 [Olaparib] (partner 8 µM)
Outline: as §1

EMC-BAC-2
relative viability (Adavosertib + Pictilisib; first compound 0.01 µM): 0.544
relative viability (Adavosertib + Pictilisib; first compound 0.03162 µM): 0.56
relative viability (Adavosertib + Pictilisib; first compound 0.1 µM): 0.583
relative viability (Adavosertib + Pictilisib; first compound 0.3162 µM): 0.544
relative viability (Nelarabine + Pictilisib; first compound 0.01 µM): 0.548
relative viability (Nelarabine + Pictilisib; first compound 0.03162 µM): 0.544
relative viability (Nelarabine + Pictilisib; first compound 0.1 µM): 0.543
relative viability (Nelarabine + Pictilisib; first compound 0.3162 µM): 0.558
relative viability (Nelarabine + Pictilisib; first compound 1 µM): 0.542
relative viability (Nelarabine + Vorinostat; first compound 0.01 µM): 0.47
relative viability (Nelarabine + Vorinostat; first compound 0.03162 µM): 1.01
relative viability (Nelarabine + Vorinostat; first compound 0.1 µM): 0.643
relative viability (Nelarabine + Vorinostat; first compound 0.3162 µM): 0.441
relative viability (Nelarabine + Vorinostat; first compound 1 µM): 0.399
relative viability (Nelarabine + Olaparib; first compound 0.01 µM): 0.538
relative viability (Nelarabine + Olaparib; first compound 0.03162 µM): 0.432
relative viability (Nelarabine + Olaparib; first compound 0.1 µM): 0.486
relative viability (Nelarabine + Olaparib; first compound 0.3162 µM): 0.529
relative viability (Nelarabine + Olaparib; first compound 1 µM): 0.553
